Read-outs that look alike come from different tables or passages of the source.
Test system: healthy individuals
Conditions: for RR: healthy subjects, lead II, mean ± SD
Description: Our investigation is based on the analysis of 12-lead digital Holter recordings in: 49 LQT1 carriers, 25 LQT2 carriers, 37 healthy individuals off drugs and on 160 mg of sotalol, and 21 of them also on 320 mg of sotalol. The Holter recordings were used to investigate repolarization parameters and their heart rate dependency.
The study populations consisted of: 49 LQT1 carriers, 25 LQT2 carriers, and 37 healthy individuals who participated in a study focused on effect of sotalol on ECG parameters of repolarization. The group of LQTS patients included individuals with genetically identified KCNH2 (HERG) and KCNQ1 mutations, we investigated these two types of mutations since they are associated with two different ion-kinetics dysfunctions of potassium currents: the KCNH2 have been linked to a reduction of the rapidly activating repolarizing potassium current (IKr) and the KCNQ1 to the slowly activating ion current IKs. We analyzed the patients in whom digital 24-hour Holter recordings were available in order to be able to investigate heart rate dependency of their repolarization morphology. The protocol of this study included 3 days of Holter recordings: at baseline, on single 160 mg dose of sotalol and a 320 mg dose of sotalol.
All the Holter ECGs were recorded using the same type of equipment: 24-hour Holter recorder H12 (H-12 recorder, Mortara Instrument, Milwaukee, Wis.) providing digital ECG signal at a sampling frequency of 180 Hz and with 12 bit amplitude resolution (6.25 pv). In this recording, 8 original leads are recorded and the remaining 4 leads (augmented limb leads aVR, aVL, aVF and lead III) are computed. Beat classification was performed using the HScribe scanning software (HScribe, Mortara Instrument, Milwaukee, Wi.) and manually reviewed and adjusted when necessary. The information about cardiac beat annotation was exported in XML format and integrated into the COMPAS software (COMPhrensive Analysis of the repolarization Segment software, University of Rochester Medical Center Rochester, N.Y.) for the analysis of repolarization morphology.
To ensure stability of repolarization and increase signal-to-noise ratio, we adopted the following strategy: the Holter recordings were divided in sections of 10 continuous sinus beats. Only the sections preceded by stable heart rate within the previous 5 minutes were selected for the analysis. Heart rate stability required having less than 300 ms changes between continuous RR values within the 5 minutes. […] The QT interval and T-amplitude measurements were based on median beats computed from each so-called “stable representative beats”.
Based on a technique ensuring an appropriate stability of the modeling of the relationship between repolarization measurements and the RR intervals disclosed in a publication by Couderc J P, Xiaojuan X, Zerba W, Moss A J, entitled, “Assessment of the Stability of the Individual-Based Correction of QT Interval for Heart Rate”, published in the Ann. Noninvasive. Electrocardiol. 2005 January; 10(1):25-34, and herein officially incorporated by reference, we investigated two electrocardiographic measurements: the QT interval and the amplitude of the T-wave and their relationship with RR intervals.
The QT interval and T amplitude were measured on the stable representative beats from lead II. The end of T-wave was identified based on the tangent method, the crossing point between the tangent and the isoelectric line identifying the end of the T-wave, although other methods of measuring the QT interval could be used in other embodiments. The amplitude of the T-wave was measured at the maximum value of the T-wave signal in absolute value. For negative T-waves, the sign of the amplitude was conserved. For biphasic T-waves, we measured the highest portion of the signal in absolute value. No manual adjustments of measurements were performed.

CC(C)NCC(O)c1ccc(NS(C)(=O)=O)cc1 (stereo not drawn) [sotalol]
RR (high dose sotalol (320 mg), n = 21, diurnal period): 947 ± 70 ms | RR (low dose sotalol (160 mg), n = 37, diurnal period): 893 ± 63 ms | Dose dependence of QT/RR slope (in vivo): not associated with sotalol dose-dependent changes | Dose dependence of T-wave amplitude/RR slope (in vivo): dose-dependent effect on the slope | Dose-dependent effect on QT interval duration, RR bin analysis (in vivo): this trend did not reach statistical significance | Mean levels of T wave amplitude off vs on sotalol (in vivo): not significantly different | QT interval duration, RR bin analysis, vs healthy individuals (in vivo): significant QT interval prolongation | QTc with increasing dose of sotalol (in vivo): progressively prolonged | T-wave amplitude across RR bins (in vivo): clear dose-dependent effect of the drug on T-wave amplitude exacerbated at low heart rate

Reference: patent publication US20080188761A1, “ECG-BASED IDENTIFICATION OF IMPAIRED IKR KINETICS” (priority 2006, published 2008)
